These results are taken from ChEMBL document CHEMBL4364252, “Tetrahydropyrazolo[1,5-a]pyridine-fused steroids and their in vitro biological evaluation in prostate cancer” (2019).

The source made the active and inactive calls. No cut-off for these calls is given here. A value given as a limit tells only on which side of the number the result lay.

In test [1] the test system is CWR22R. The test is described as follows: Antiproliferative activity against human AR-positive 22Rv1 cells harboring ARE14 construct assessed as growth inhibition measured after 72 hrs by resazurin dye based fluorescence assay. The note with it: 22Rv1, 72 h. It counts as functional. A general note: Resazurin is reduced to fluorescent resorufin, in cell work by metabolically active cells.

Test [2] has as its system PC-3. The test is described as follows: Antiproliferative activity against AR-negative human PC3 cells assessed as growth inhibition measured after 72 hrs by resazurin dye based fluorescence assay. The following applies: PC-3, 72 h. It counts as functional.
Test [3] relates to CWR22R. Kind of test: Effect on AR-V7 variant protein expression in AR-positive human 22Rv1 cells harboring ARE14 construct at 10 uM after 24 hrs by immunoblot analysis. It is filed as functional, cell-based. Background: In western blotting, separated proteins are transferred to a membrane and probed.
In test [4] the target is T1, Androgen receptor (Homo sapiens) (UniProt P10275).
T1 sequence (whole entry): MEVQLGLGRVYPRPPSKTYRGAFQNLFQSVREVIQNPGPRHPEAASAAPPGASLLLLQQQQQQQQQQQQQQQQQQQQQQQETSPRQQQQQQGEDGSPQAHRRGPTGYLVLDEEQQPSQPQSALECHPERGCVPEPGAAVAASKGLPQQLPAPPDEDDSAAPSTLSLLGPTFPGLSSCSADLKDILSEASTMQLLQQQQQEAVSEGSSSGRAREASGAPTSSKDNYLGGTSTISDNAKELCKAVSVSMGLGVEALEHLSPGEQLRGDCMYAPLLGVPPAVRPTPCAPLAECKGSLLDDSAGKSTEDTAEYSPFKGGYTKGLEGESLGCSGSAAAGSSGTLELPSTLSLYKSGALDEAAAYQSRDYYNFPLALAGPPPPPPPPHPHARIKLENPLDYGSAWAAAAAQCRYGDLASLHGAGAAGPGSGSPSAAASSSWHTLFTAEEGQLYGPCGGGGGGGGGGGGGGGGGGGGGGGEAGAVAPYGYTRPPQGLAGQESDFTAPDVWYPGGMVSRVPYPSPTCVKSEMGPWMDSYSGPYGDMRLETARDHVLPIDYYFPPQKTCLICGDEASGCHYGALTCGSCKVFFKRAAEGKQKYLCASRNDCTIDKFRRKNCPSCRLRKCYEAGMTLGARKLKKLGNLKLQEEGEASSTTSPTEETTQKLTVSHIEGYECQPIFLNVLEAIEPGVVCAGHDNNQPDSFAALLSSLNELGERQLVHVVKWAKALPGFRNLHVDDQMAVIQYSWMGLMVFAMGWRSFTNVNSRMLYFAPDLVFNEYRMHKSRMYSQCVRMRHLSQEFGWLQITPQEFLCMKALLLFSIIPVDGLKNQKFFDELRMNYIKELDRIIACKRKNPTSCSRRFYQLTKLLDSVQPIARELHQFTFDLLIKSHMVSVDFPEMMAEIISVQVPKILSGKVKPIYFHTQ
The following applies: at 10 µM.
Description: Inhibition of AR transcriptional activity in AR-positive human 22Rv1 cells harboring ARE14 construct assessed as suppression of NKX3.1 expression at 10 uM after 24 hrs by immunoblot analysis

For test [5], the target named is T1, Androgen receptor (Homo sapiens). The note with it: at 10 µM. The source holds these as a separate data set.
Description: Inhibition of R1881 induced-AR transcriptional activity in AR-positive human 22Rv1 cells harboring ARE14 construct at 10 uM after 24 hrs by luciferase assay
In test [6] the test system is VCaP. The test is described as follows: Antiproliferative activity against AR-positive human VCaP cells assessed as growth inhibition measured after 72 hrs by resazurin dye based fluorescence assay. It is filed as functional.
Test [7] has as its target T1, Androgen receptor (Homo sapiens). The note with it: at 10 µM. The source holds these as a separate data set.
Description: Inhibition of AR transcriptional activity in AR-positive human 22Rv1 cells harboring ARE14 construct assessed as suppression of PSA expression at 10 uM after 24 hrs by immunoblot analysis
Test [8] has as its system LAPC4. Kind of test: Antiproliferative activity against AR-positive human LAPC4 cells assessed as growth inhibition measured after 72 hrs by resazurin dye based fluorescence assay. It is filed as functional. The note with it: LAPC4, 72 h.
In test [9] the test system is CWR22R. Kind of test: Antiproliferative activity against AR-positive human 22Rv1 cells harboring ARE14 construct assessed as cell viability at 40 uM measured after 72 hrs by resazurin dye based fluorescence assay relative to control. It is filed as functional. The following applies: 22Rv1, 72 h, read-out: Activity.
The subject of test [10] is LNCaP. The test is described as follows: Antiproliferative activity against AR-positive human LNCAP cells assessed as cell viability at 40 uM measured after 72 hrs by resazurin dye based fluorescence assay relative to control. It is filed as functional. The following applies: read-out: Activity.
Test [11] relates to PC-3. The test is described as follows: Antiproliferative activity against AR-negative human PC3 cells assessed as cell viability at 40 uM measured after 72 hrs by resazurin dye based fluorescence assay relative to control. The following applies: PC-3, 72 h, read-out: Activity. It counts as functional.
For test [12], the system named is VCaP. Kind of test: Antiproliferative activity against AR-positive human VCaP cells assessed as cell viability at 40 uM measured after 72 hrs by resazurin dye based fluorescence assay relative to control. It counts as functional. The note with it: read-out: Activity.
Test [13] relates to LAPC4. Kind of test: Antiproliferative activity against AR-positive human LAPC4 cells assessed as cell viability at 40 uM measured after 72 hrs by resazurin dye based fluorescence assay relative to control. It is filed as functional. The following applies: LAPC4, 72 h, read-out: Activity.
The subject of test [14] is LNCaP. The test is described as follows: Antiproliferative activity against AR-positive human LNCAP cells assessed as growth inhibition measured after 72 hrs by resazurin dye based fluorescence assay. It counts as functional.

With `C[C@@H](O)[C@@]12Cc3c(CO)c(CO)nn3C[C@@H]1C[C@H]1[C@@H]3CC=C4C[C@@H](O)CC[C@]4(C)[C@H]3CC[C@@]12C`, the GI50 in the test on CWR22R [1], in the test on PC-3 [2], with VCaP [6], in the test with LAPC4 [8] and in the test on LNCaP [14] was above 40 µM each time. Moreover, the outcome with CWR22R [3] was inactive. For the same compound, the inhibition entry in test [4] was “Active”. In addition, the inhibition result in [5] and in test [7] was “inactive” throughout. The viability at 40 µM with CWR22R [9] is 95.8%; with LNCaP [10], 92.8%; with PC-3 [11], above 100%; in the test on VCaP [12], 96.3%; in the test on LAPC4 [13] it was 97.5%.

Take `COC(=O)c1nn2c(c1C(=O)OC)C[C@]1(C(C)=O)[C@@H](C[C@H]3[C@@H]4CCC5=CC(=O)CC[C@]5(C)[C@H]4CC[C@@]31C)[C@H]2Cc1ccccc1`: the GI50 in the test with CWR22R [1], with PC-3 [2], with VCaP [6], in the test with LAPC4 [8] and with LNCaP [14] was above 40 µM in each case. For the same compound, the result in the test with CWR22R [3] was inactive. The inhibition result in test [5] is “inactive”. Moreover, in [7], the inhibition entry is “Active”. In addition, the viability at 40 µM is 63.3% in the test with CWR22R [9]; 80.6% with LNCaP [10]; above 100% in the test on PC-3 [11]; 80.7% in the test with VCaP [12]; 97.2% with LAPC4 [13].

Regarding `C[C@@H](O)[C@@]12Cc3c(CO)c(CO)nn3[C@H](Cc3ccccc3)[C@@H]1C[C@H]1[C@@H]3CC=C4C[C@@H](O)CC[C@]4(C)[C@H]3CC[C@@]12C`, the GI50 with CWR22R [1], in the test with PC-3 [2], in the test on VCaP [6], in the test with LAPC4 [8] and in the test on LNCaP [14] was above 40 µM in each case. Besides, in the test with CWR22R [3], the result was inactive. For the same compound, the inhibition result in test [5] is “inactive”. The inhibition result in test [7] is “Active”. In addition, the viability at 40 µM with CWR22R [9] is 55.8%; in the test on LNCaP [10] it was 89.7%; with PC-3 [11], above 100%; in the test on VCaP [12], 43%; with LAPC4 [13], 85.9%.

Take `C[C@@H](O)[C@@]12Cc3c(CO)cnn3C[C@@H]1C[C@H]1[C@@H]3CC=C4C[C@@H](O)CC[C@]4(C)[C@H]3CC[C@@]12C`: the GI50 with CWR22R [1], with PC-3 [2], in the test with VCaP [6], in the test on LAPC4 [8] and in the test on LNCaP [14] was above 40 µM each time. In addition, the result in the test with CWR22R [3] was inactive. In addition, in test [5], the inhibition entry was “inactive”. Moreover, the viability at 40 µM is 96.3% in the test with CWR22R [9]; 82.8% in the test on LNCaP [10]; above 100% in the test on PC-3 [11]; 96.7% in the test on VCaP [12]; 92.2% with LAPC4 [13].

As for `COC(=O)c1nn2c(c1C(=O)OC)C[C@]1(C(C)=O)[C@@H](C[C@H]3[C@@H]4CC=C5C[C@@H](O)CC[C@]5(C)[C@H]4CC[C@@]31C)C2`, the GI50 in the test with CWR22R [1], in the test with PC-3 [2] and in the test on VCaP [6] was above 40 µM in each case. In the test with CWR22R [3], the outcome was inactive. The inhibition entry in test [4], in test [5] and in test [7] was “inactive” in each case. Besides, the viability at 40 µM with CWR22R [9] is 88%; in the test on PC-3 [11] it was 71.7%; in the test on VCaP [12] it was above 100%.

On to `COC(=O)c1nn2c(c1C(=O)OC)C[C@]1(C(C)=O)[C@@H](C[C@H]3[C@@H]4CC=C5C[C@@H](O)CC[C@]5(C)[C@H]4CC[C@@]31C)[C@H]2Cc1ccccc1`, for which the GI50 with CWR22R [1], with PC-3 [2], with VCaP [6], with LAPC4 [8] and with LNCaP [14] was above 40 µM throughout. The outcome with CWR22R [3] was inactive. Besides, the inhibition entry in test [4], in test [5] and in [7] was “inactive” each time. Also, the viability at 40 µM with CWR22R [9] amounted to 28.4%; in the test with LNCaP [10], 83.5%; with PC-3 [11] it was 64.7%; in the test on VCaP [12] it was 57%; in the test with LAPC4 [13] it was 81.3%.

With `CC(=O)[C@@]12Cc3c(C(=O)O)cnn3C[C@@H]1C[C@H]1[C@@H]3CCC4=CC(=O)CC[C@]4(C)[C@H]3CC[C@@]12C`, the GI50 with CWR22R [1], in the test on PC-3 [2] and in the test on VCaP [6] was above 40 µM throughout. Moreover, the result in the test on CWR22R [3] was inactive. Further, the inhibition result in test [4], in test [5] and in test [7] was “inactive” throughout. Also, the viability at 40 µM was 92.4% in the test with CWR22R [9], above 100% in the test on PC-3 [11] and 95.7% in the test with VCaP [12].

For `COC(=O)c1cnn2c1C[C@]1(C(C)=O)[C@@H](C[C@H]3[C@@H]4CC=C5C[C@@H](O)CC[C@]5(C)[C@H]4CC[C@@]31C)C2`, the GI50 in the test with CWR22R [1], with PC-3 [2] and with VCaP [6] was above 40 µM each time. Besides, the outcome in the test with CWR22R [3] was inactive. In addition, the inhibition entry in [4] and in test [7] was “Active” in each case. In [5], the inhibition result was “inactive”. Moreover, the viability at 40 µM was 78.5% in the test with CWR22R [9], 89.6% with PC-3 [11] and 90.4% with VCaP [12].

Take `CNC(=O)c1ccc(N2C(=S)N(c3ccc(C#N)c(C(F)(F)F)c3)C(=O)C2(C)C)cc1F` [ENZALUTAMIDE]: the viability at 40 µM in the test on CWR22R [9] is 84%; in the test on LNCaP [10], 94.2%; in the test with PC-3 [11] it was 88.7%; in the test with VCaP [12], 61.2%; with LAPC4 [13] it was 80.3%.

On to `COC(=O)c1nn2c(c1C(=O)OC)C[C@]1(C(C)=O)[C@@H](C[C@H]3[C@@H]4CCC5=CC(=O)CC[C@]5(C)[C@H]4CC[C@@]31C)C2`, for which the GI50 with CWR22R [1], in the test on PC-3 [2] and with VCaP [6] was above 40 µM in each case. Also, in the test on CWR22R [3], the outcome was inactive. Also, in test [4], the inhibition entry was “Active”. For the same compound, the inhibition entry in test [5] and in test [7] was “inactive” in each case. Moreover, the viability at 40 µM in the test on CWR22R [9] amounted to 73.5%; in the test on PC-3 [11], 94%; with VCaP [12] it was 80.3%.

For `COC(=O)c1cnn2c1C[C@]1(C(C)=O)[C@@H](C[C@H]3[C@@H]4CC=C5C[C@@H](OC(C)=O)CC[C@]5(C)[C@H]4CC[C@@]31C)C2`, the concentration for 50% growth inhibition (GI50) in the test with CWR22R [1], with PC-3 [2] and in the test with VCaP [6] was above 40 µM in each case. The result with CWR22R [3] was inactive. The inhibition entry in [5] is “inactive”. Also, in test [7], the inhibition result was “Active”. For the same compound, the viability at 40 µM was 83.3% with CWR22R [9], above 100% with PC-3 [11] and 84.9% in the test on VCaP [12].

In general, GI50 refers to the concentration at which growth is held to half of that of the control.
